Experimental data taken from patent US20240287138A1, “CYCLIC PEPTIDES FOR INHIBITING TNF RECEPTOR 1 ACTIVITY” (Merck Sharp & Dohme LLC, priority 2023, published 2024).
Numbered stars: 1 amine (or outer) side, 2 acyl side, 3 side chain; on linkers, the order of the positions; unused ones are H or OH. Bridge positions count the residues as written; N and C are the ends. Square brackets hold non-standard residues; d marks the D form. Peptide text beside a SMILES is read from it. Trp(βS-Me,7-OMe) = COc1cccc2c([C@H](C)[C@H](N)C(=O)O)c[nH]c12; dPro(trans-4-NMe3+) = C[N+](C)(C)[C@@H]1CN[C@@H](C(=O)O)C1; Trp(1-CH2COOH) = N[C@@H](Cc1cn(CC(=O)O)c2ccccc12)C(=O)O; Phe(4-SO2NH2) = N[C@@H](Cc1ccc(S(N)(=O)=O)cc1)C(=O)O; Trp(7-CN) = N#Cc1cccc2c(C[C@H](N)C(=O)O)c[nH]c12; Trp(7-Cl) = N[C@@H](Cc1c[nH]c2c(Cl)cccc12)C(=O)O; Phe(4-CONH2) = NC(=O)c1ccc(C[C@H](N)C(=O)O)cc1; Phe(4-COOH) = N[C@@H](Cc1ccc(C(=O)O)cc1)C(=O)O; Trp(7-aza) = N[C@@H](Cc1c[nH]c2ncccc12)C(=O)O; X3 = C[C@H](c1ccncc1)[C@H](N[*:1])C(=O)[*:2]; dPro(4S-NH2) = N[C@@H]1CN[C@@H](C(=O)O)C1; Pip(5R-OH) = O=C(O)[C@@H]1CC[C@@H](O)CN1; X1 = O=C([C@@H]1CC[C@H](N[*:1])C1)[*:2]; N(CH2CH2COOH)Gly = O=C(O)CCNCC(=O)O; Pip(4-aza) = O=C(O)[C@@H]1CNCCN1; 4Pal = N[C@@H](Cc1ccncc1)C(=O)O; NMeE = CN[C@@H](CCC(=O)O)C(=O)O; Pip = O=C(O)[C@@H]1CCCCN1; αMeS = C[C@](N)(CO)C(=O)O; Nle = CCCC[C@H](N)C(=O)O; Sar = CNCC(=O)O

How the values were obtained:
human TNFR2 ECD protein = target: T1, human TNFR2 ECD protein (Homo sapiens, UniProt P20333); test: SPR off-target binding (selectivity) to human TNFR2 ECD
T1 construct: HRV 3C protease cleavage site (C); 6His (C, cleaved yes); made in house; host or cells: Sf21 insect cells (baculovirus), secreted
T1 sequence (P20333 23-257): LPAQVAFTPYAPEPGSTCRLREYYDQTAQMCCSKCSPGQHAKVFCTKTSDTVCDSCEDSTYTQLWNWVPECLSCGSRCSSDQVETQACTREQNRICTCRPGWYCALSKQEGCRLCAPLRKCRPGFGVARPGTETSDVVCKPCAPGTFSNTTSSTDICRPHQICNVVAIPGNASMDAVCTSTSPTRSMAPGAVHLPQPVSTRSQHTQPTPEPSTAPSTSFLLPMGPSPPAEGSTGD
Summary of the method: (§1)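 Insect-cell human receptor ECDs, enzymatically biotinylated, immobilized via streptavidin capture chip. Peptide binding and dissociation measured in RU in pH 7.4 HEPES buffer containing 2% DMSO; chip regenerated per analyte. Rate constants give affinity.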

[1] = target: T2, TNFα-induced NF-κB signal transduction pathway (TNFR1 signaling) in THP-1 cells (Homo sapiens, UniProt P19438); test: THP-1 Lucia NF-κB reporter cell assay, inhibition of TNFα-induced NF-κB signaling; assay type: cell-based; conditions: THP-1 NF-κB Lucia reporter cells, 10 ng/mL TNFα, 16-18 h, secreted luciferase; read-out: THP-1 IC50
T2 sequence (P19438 30-455): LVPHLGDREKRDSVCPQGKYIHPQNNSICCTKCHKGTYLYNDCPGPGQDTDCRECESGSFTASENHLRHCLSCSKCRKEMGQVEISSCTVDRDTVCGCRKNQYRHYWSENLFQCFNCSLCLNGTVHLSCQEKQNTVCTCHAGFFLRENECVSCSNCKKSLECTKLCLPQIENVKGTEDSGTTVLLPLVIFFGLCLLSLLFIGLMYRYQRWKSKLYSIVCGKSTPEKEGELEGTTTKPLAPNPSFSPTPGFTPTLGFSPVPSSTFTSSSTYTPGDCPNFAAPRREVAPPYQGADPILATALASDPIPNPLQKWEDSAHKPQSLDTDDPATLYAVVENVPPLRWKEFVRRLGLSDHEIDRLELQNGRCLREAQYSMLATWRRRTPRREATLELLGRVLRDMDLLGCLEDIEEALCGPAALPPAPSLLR
Summary of the method: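 Read-out: secreted Lucia luciferase luminescence (QUANTI-Luc) from supernatant after 16-18 h, 37 °C, 10 ng/mL rhTNFα. Peptide pretreatment 1 h at 37 °C; 20,000 cells/well, selection antibiotics omitted. IC50 via 4-parameter logistic model against min/max controls.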

[2] = target: T3, human TNFR1 extracellular domain (ECD) protein (Homo sapiens, UniProt P19438); test: SPR binding affinity to captured human TNFR1 ECD
T3 construct: HRV 3C protease cleavage site (C); 6His (C, cleaved yes); made in house; host or cells: Sf21 insect cells (baculovirus), secreted
T3 sequence (P19438 30-211): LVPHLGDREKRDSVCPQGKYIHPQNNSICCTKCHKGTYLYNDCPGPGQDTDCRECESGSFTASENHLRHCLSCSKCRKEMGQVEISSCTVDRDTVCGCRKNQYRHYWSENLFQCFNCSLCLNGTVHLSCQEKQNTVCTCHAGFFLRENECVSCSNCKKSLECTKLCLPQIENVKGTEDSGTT
Summary of the method: as §1

## CCCC[C@@H]1NC(=O)CSC[C@@H](C(N)=O)NC(=O)[C@H]([C@@H](C)c2c[nH]c3c(OC)cccc23)NC(=O)CN(C)C(=O)[C@H](Cc2ccc(O)cc2)NC(=O)[C@H](Cc2ccc(C(=O)O)cc2)NC(=O)[C@](C)(CO)NC(=O)[C@H](Cc2c[nH]c3c(Cl)cccc23)NC(=O)[C@H](Cc2ccncc2)NC(=O)[C@H](CC(N)=O)NC(=O)CN(CCC(=O)O)C(=O)[C@H](Cc2c[nH]c3ncccc23)NC(=O)[C@@H]2CCCCN2C(=O)[C@H](Cc2ccncc2)NC1=O [SEQ ID NO. 220] ({CH2CO}-[Nle][4Pal][Pip][Trp(7-aza)][N(CH2CH2COOH)Gly]N[4Pal][Trp(7-Cl)][αMeS][Phe(4-COOH)]Y[Sar][Trp(βS-Me,7-OMe)]C-NH2; thioether N-14)
Human TNFR2 ECD protein
  Kd: > 1000 nM
[1]
  IC50: 2.9 nM
[2]
  Kd: 0.25 nM

## CCCC[C@@H]1NC(=O)CSC[C@@H](C(N)=O)NC(=O)[C@H]([C@@H](C)c2c[nH]c3c(OC)cccc23)NC(=O)CN(C)C(=O)[C@H](Cc2ccc(O)cc2)NC(=O)[C@H](Cc2ccc(C(=O)O)cc2)NC(=O)[C@](C)(CO)NC(=O)[C@H](Cc2c[nH]c3c(Cl)cccc23)NC(=O)[C@H](Cc2ccncc2)NC(=O)[C@H](CC(N)=O)NC(=O)[C@H](CCC(=O)O)N(C)C(=O)[C@H](Cc2c[nH]c3ncccc23)NC(=O)[C@H](CO)NC(=O)[C@H]([C@H](C)c2ccncc2)NC1=O [SEQ ID NO. 143] ({CH2CO}-[Nle][X3]S[Trp(7-aza)][NMeE]N[4Pal][Trp(7-Cl)][αMeS][Phe(4-COOH)]Y[Sar][Trp(βS-Me,7-OMe)]C-NH2; thioether N-14)
Human TNFR2 ECD protein
  Kd: > 1000 nM
[1]
  IC50: 2.2 nM
[2]
  Kd: 0.05 nM

## CCCC[C@@H]1NC(=O)[C@@H]2CC[C@@H](C2)NC(=O)[C@H]([C@@H](C)c2c[nH]c3c(OC)cccc23)NC(=O)CN(C)C(=O)[C@H](Cc2ccc(O)cc2)NC(=O)[C@H](Cc2ccc(C(N)=O)cc2)NC(=O)[C@](C)(CO)NC(=O)[C@H](Cc2c[nH]c3c(Cl)cccc23)NC(=O)[C@H](Cc2ccncc2)NC(=O)[C@H](CC(N)=O)NC(=O)[C@H](CCC(=O)O)N(C)C(=O)[C@H](Cc2c[nH]c3ccccc23)NC(=O)[C@@H]2CC[C@@H](O)CN2C(=O)[C@H](Cc2ccncc2)NC1=O [SEQ ID NO. 163] (cyclo([4Pal][Trp(7-Cl)][αMeS][Phe(4-CONH2)]Y[Sar][Trp(βS-Me,7-OMe)][X1][Nle][4Pal][Pip(5R-OH)]W[NMeE]N))
Human TNFR2 ECD protein
  Kd: > 1000 nM
[1]
  IC50: 0.7 nM
[2]
  Kd: 0.05 nM

## CCCC[C@@H]1NC(=O)[C@@H]2CC[C@@H](C2)NC(=O)[C@H]([C@@H](C)c2c[nH]c3c(OC)cccc23)NC(=O)CN(C)C(=O)[C@H](Cc2ccc(O)cc2)NC(=O)[C@H](Cc2ccc(C(=O)O)cc2)NC(=O)[C@](C)(CO)NC(=O)[C@H](Cc2c[nH]c3c(Cl)cccc23)NC(=O)[C@H](Cc2ccncc2)NC(=O)[C@H](CC(N)=O)NC(=O)[C@H]2C[C@H](N)CN2C(=O)[C@H](Cc2c[nH]c3ccccc23)NC(=O)[C@@H]2CNCCN2C(=O)[C@H](Cc2ccncc2)NC1=O [SEQ ID NO. 161] (cyclo([4Pal][Trp(7-Cl)][αMeS][Phe(4-COOH)]Y[Sar][Trp(βS-Me,7-OMe)][X1][Nle][4Pal][Pip(4-aza)]W[dPro(4S-NH2)]N))
Human TNFR2 ECD protein
  Kd: > 1000 nM
[1]
  IC50: 1.3 nM
[2]
  Kd: 0.02 nM

## CCCC[C@@H]1NC(=O)[C@@H]2CC[C@@H](C2)NC(=O)[C@H]([C@@H](C)c2c[nH]c3c(OC)cccc23)NC(=O)CN(C)C(=O)[C@H](Cc2ccc(C(N)=O)cc2)NC(=O)[C@H](Cc2ccc(S(N)(=O)=O)cc2)NC(=O)[C@](C)(CO)NC(=O)[C@H](Cc2c[nH]c3c(C#N)cccc23)NC(=O)[C@H](Cc2ccc(C(=O)O)cc2)NC(=O)[C@H](CC(N)=O)NC(=O)[C@H]2C[C@H]([N+](C)(C)C)CN2C(=O)[C@H](Cc2cn(CC(=O)O)c3ccccc23)NC(=O)[C@@H]2CC[C@@H](O)CN2C(=O)[C@H](Cc2ccncc2)NC1=O [SEQ ID NO. 9] (cyclo([4Pal][Pip(5R-OH)][Trp(1-CH2COOH)][dPro(trans-4-NMe3+)]N[Phe(4-COOH)][Trp(7-CN)][αMeS][Phe(4-SO2NH2)][Phe(4-CONH2)][Sar][Trp(βS-Me,7-OMe)][X1][Nle]))
Human TNFR2 ECD protein
  Kd: > 1000 nM
[1]
  IC50: 0.6 nM
[2]
  Kd: 0.1 nM
